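Abbreviation: GI50, concentration required for 50% inhibition of growth. TGI marks complete inhibition of growth.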
Experiments:
Experiment in all cases: NCI anticancer screen, dose series, 384-well format
NCI-H23 lung = system: NCI-H23 lung
NCI-H322M lung = system: NCI-H322M lung
NCI-H460 NSCLC = system: NCI-H460 NSCLC
NCI-H522 lung = system: NCI-H522 lung
NCI/ADR-RES ovarian = system: NCI/ADR-RES ovarian
OVCAR-3 ovarian = system: OVCAR-3 ovarian
OVCAR-4 ovarian = system: OVCAR-4 ovarian
OVCAR-5 ovarian = system: OVCAR-5 ovarian
OVCAR-8 ovarian = system: OVCAR-8 ovarian
PC-3 prostate = system: PC-3 prostate
RPMI-8226 leukemia = system: RPMI-8226 leukemia
RXF 393 renal = system: RXF 393 renal
SF-268 CNS = system: SF-268 CNS
SF-295 CNS = system: SF-295 CNS
SF-539 CNS = system: SF-539 CNS
SK-MEL-2 melanoma = system: SK-MEL-2 melanoma
SK-MEL-28 melanoma = system: SK-MEL-28 melanoma
SK-MEL-5 melanoma = system: SK-MEL-5 melanoma
SK-OV-3 ovarian = system: SK-OV-3 ovarian
SN12C renal = system: SN12C renal
SNB-19 CNS = system: SNB-19 CNS
SR leukemia = system: SR leukemia
SW-620 colon = system: SW-620 colon
T-47D breast = system: T-47D breast
TK-10 renal = system: TK-10 renal
U251 glioblastoma = system: U251 glioblastoma
UACC-257 melanoma = system: UACC-257 melanoma
UACC-62 melanoma = system: UACC-62 melanoma
UO-31 renal = system: UO-31 renal

With `Cc1c(S(C)(=O)=O)c(-c2cc(F)cc(N3CCN(c4ccc(NS(=O)(=O)c5ccc(N[C@H](CCN6CCC(C(=O)OCCCP(=O)(O)O)CC6)CSc6ccccc6)c(S(=O)(=O)C(F)(F)F)c5)cc4)CC3)c2)c(-c2ccc(Cl)cc2)n1C(C)C` the TGI (NCI-H23 lung) was > 100 µM, the GI50 (NCI-H322M lung) was > 100 µM and the TGI (NCI-H322M lung) was > 100 µM. For the same molecule, the GI50 (NCI-H460 NSCLC) was > 100 µM, the TGI (NCI-H460 NSCLC) was > 100 µM and the GI50 (NCI-H522 lung) was > 100 µM. The TGI (NCI-H522 lung) was > 100 µM, the GI50 (NCI/ADR-RES ovarian) was > 100 µM and the TGI (NCI/ADR-RES ovarian) was > 100 µM. For the same molecule, the GI50 (OVCAR-3 ovarian) was > 100 µM, the TGI (OVCAR-3 ovarian) was > 100 µM and the GI50 (OVCAR-4 ovarian) was > 100 µM. For the same molecule, the TGI (OVCAR-4 ovarian) was > 100 µM, the GI50 (OVCAR-5 ovarian) was > 100 µM and the TGI (OVCAR-5 ovarian) was > 100 µM. The GI50 (OVCAR-8 ovarian) was > 100 µM, the TGI (OVCAR-8 ovarian) was > 100 µM and the GI50 (PC-3 prostate) was > 100 µM. The TGI (PC-3 prostate) was > 100 µM, the GI50 (RPMI-8226 leukemia) was 0.0131 µM and the TGI (RPMI-8226 leukemia) was 0.0361 µM. The GI50 (RXF 393 renal) was 0.12 µM, the TGI (RXF 393 renal) was 30.3 µM and the GI50 (SF-268 CNS) was > 100 µM. For the same molecule, the TGI (SF-268 CNS) was > 100 µM, the GI50 (SF-295 CNS) was > 100 µM and the TGI (SF-295 CNS) was > 100 µM. The GI50 (SF-539 CNS) was > 100 µM, the TGI (SF-539 CNS) was > 100 µM and the GI50 (SK-MEL-2 melanoma) was > 100 µM. The TGI (SK-MEL-2 melanoma) was > 100 µM, the GI50 (SK-MEL-28 melanoma) was > 100 µM and the TGI (SK-MEL-28 melanoma) was > 100 µM. The GI50 (SK-MEL-5 melanoma) was > 100 µM, the TGI (SK-MEL-5 melanoma) was > 100 µM and the GI50 (SK-OV-3 ovarian) was > 100 µM. For the same molecule, the TGI (SK-OV-3 ovarian) was > 100 µM, the GI50 (SN12C renal) was > 100 µM and the TGI (SN12C renal) was > 100 µM. The GI50 (SNB-19 CNS) was > 100 µM, the TGI (SNB-19 CNS) was > 100 µM and the GI50 (SR leukemia) was 0.892 µM. For the same molecule, the TGI (SR leukemia) was > 100 µM, the GI50 (SW-620 colon) was > 100 µM and the TGI (SW-620 colon) was > 100 µM. For the same molecule, the GI50 (T-47D breast) was > 100 µM, the TGI (T-47D breast) was > 100 µM and the GI50 (TK-10 renal) was > 100 µM. The TGI (TK-10 renal) was > 100 µM, the GI50 (U251 glioblastoma) was > 100 µM and the TGI (U251 glioblastoma) was > 100 µM. For the same molecule, the GI50 (UACC-257 melanoma) was > 100 µM, the TGI (UACC-257 melanoma) was > 100 µM and the GI50 (UACC-62 melanoma) was > 100 µM. For the same molecule, the TGI (UACC-62 melanoma) was > 100 µM, the GI50 (UO-31 renal) was > 100 µM and the TGI (UO-31 renal) was > 100 µM.
